Source: PMC7355663, “Microscale Thermophoresis as a Screening Tool to Predict Melanin Binding of Drugs” (Pharmaceutics, 2020)
Where two headings read alike, the source gives them in different places.

Key:
[1] = Prediction of unbound ligand fraction in vivo (human RPE-choroid); conditions: class by predicted fraction unbound in vivo, human RPE-choroid
Procedure: (§1) Unbound ligand fractions in vivo were calculated considering melanin binding as the only driver of nonspecific tissue binding.
(§2) Linear regression was used to describe the relationship between the Kd values obtained with the MST and the predicted unbound ligand fractions in human RPE-choroid obtained with calculations described above.
(§3) The Kd values obtained with MST consider only one class of binding site, whereas the Sips isotherm (the traditional binding assay) depicts different binding energies and binding sites. […] This approach is relevant to evaluate the melanin binding.

melanin [2] = assay: as above; conditions: human
Procedure: as §1, §2, §3

[3] = Label-free microscale thermophoresis (MST) melanin binding assay; conditions: for melanin binder category in Figure 1a: comparison of MST with traditional assay
Procedure: Synthetic melanin was purchased from Sigma Aldrich (#M8631-100 mg). Melanin nanoparticles were prepared as described earlier by Fan et al., and low-binding pipette tips (Maxymum RecoveryTM pipet tips, Corning Incorporated, Salt Lake City, UT, USA) and tubes (No stick microtubes, Alpha Laboratories, Hampshire, UK) were used with both melanin and melanin nanoparticles. Briefly, melanin was dissolved into 1 N NaOH with a concentration of 2 mg/mL and stirred by vortexing. The solution was neutralized by adding an equal volume of 1 N HCl. […] After the final centrifugation, the resulting nanoparticles were suspended into a small volume of sterile water and freeze-dried for 48–72 h (ModulyoD-230, Thermo Savant, Holbrook, NY, USA), and stored at −20 °C until the binding assays.
Melanin binding of each of the 13 model compounds was determined (for the concentrations in the assay, see Table 1). The dilution series of drugs were prepared onto a PCR plate (4titude PCR Plate, Skirted, #4ti-0740, Brooks Life Sciences, Chelmsford, MA, USA) in phosphate buffered saline (PBS, pH 7.4). […] The compound dilutions (10 µL) were transferred into 0.2 mL PCR tube strips (#TBS0201, Bio-Rad Laboratories, Inc., Hercules, CA, USA), and an equal volume of 1 mg/mL melanin nanoparticle dilution was added, resulting in a final melanin concentration of 0.5 mg/mL. At least three biological replicates (individually incubated dilution series) were prepared for each compound (n = 3–5). A reference sample containing only melanin nanoparticles and PBS (pH 7.4) was included in each assay to determine the unbound state in the thermophoresis experiment. Melanin nanoparticles were incubated with the compounds at room temperature for at least 2 h.
After >2 h incubation, the melanin–ligand complexes were mixed gently with a pipette to ensure melanin solution homogeneity and then transferred into capillaries (Monolith NT.115 Premium capillaries, #MOK025, NanoTemper Technologies GmbH, München, Germany). The samples were analyzed with a Monolith NT.115 pico device using MO.Control Software (both from NanoTemper Technologies GmbH, München, Germany) using nano-blue excitation, LED light adjusted to 60% excitation power, and infrared laser (MST power) set to high. […] The equation is based on the Langmuir binding isotherm. […] Equation (1) is a follows:(1) f(c)=Unbound+(Bound−Unbound)×c+c(target)+Kd−(c+c(target)+Kd)^2−4c×c(target)/2c(target) where f(c) is the fraction bound at a given ligand concentration c. Unbound is either the normalized fluorescence signal (Fnorm; MST mode) or raw fluorescence counts (initial fluorescence mode) of the target alone. Bound is either the normalized fluorescence signal or raw fluorescence counts (initial fluorescence mode) of the melanin–ligand complex. Kd is the dissociation constant or binding affinity, and c (target) is the final concentration of the target in the assay.
The normalized fluorescence is the ratio of relative fluorescence of the selected region after heating (hot region) and relative initial fluorescence before the heating (cold region, i.e., relative fluorescence values before the infrared laser was switched on). The MST traces displaying the changes in the relative fluorescence over time (heating) with the selected hot and cold regions are presented in the Supplementary Materials. In the case of ligand-induced changes in the initial raw fluorescence counts, the raw fluorescence counts prior to the heating were used (initial fluorescence mode). If the ligand-induced fluorescence changes were not observed, the normalized fluorescence signals (MST mode) were used to determine the Kd (for additional information, see the Supplementary Materials). […] Affinity Analysis Software.
Kd determination strategies. The Kd values were tested in both initial fluorescence and the above
described MST modes within the MO Affinity Analysis Software (Fig. S1, Table S1) and the Kd values

[4] = design: method as in PMID 26741026, PMID 29859954; conditions: from previous studies, ref [11],[16], cited from earlier work; for Kd: read-out: Kd ± SE, traditional method (Sips isotherm); for n ± SE, traditional method (Sips isotherm): heterogeneity index; for Bmax ± SE, traditional method (Sips isotherm): maximum binding capacity
[5] = Traditional melanin binding assay (equilibrium binding, Sips isotherm); conditions: for Target Capacity ± SE, traditional method (Sips isotherm): Bmax multiplied with 0.5 mg/mL melanin concentration of the MST assay; for n ± SE, traditional method (Sips isotherm): heterogeneity index; for n ± SE, traditional method (Sips isotherm) / Bmax ± SE, traditional method (Sips isotherm) / Kd: 1 mg/mL melanin, PBS pH 7.4, 37 °C; for Bmax ± SE, traditional method (Sips isotherm): maximum binding capacity; for Kd: read-out: Kd ± SE, traditional method (Sips isotherm)
Procedure: (§4) The traditional melanin binding assay was conducted with melanin from the porcine RPE-choroid. We used previously published methods for melanin isolation and drug binding. Fresh melanin suspension and test compound solutions were prepared before each experiment. The melanin suspension (in PBS, pH 7.4) was sonicated in a bath sonicator for 30 min (Elmasonic S 40 H, Elma Schmidbauer GmbH, Singen, Germany) before the experiment. The incubation with test compounds took place at 37 °C on a shaker (220 rpm), and the melanin concentration in the assay was 1 mg/mL (0.15 mg/well). In the control samples, PBS buffer (pH 7.4) was used instead of the melanin suspension. Three individual replicates were made for each experiment. After 20 h incubation, the samples were centrifuged at 20,000× g for 20 min, and supernatant containing the unbound ligand was collected for analysis.
(§5) Samples having an estimated concentration of 0.5 µM or higher were analyzed with ultra-high pressure liquid chromatography (UPLC) (Acquity UPLC, Waters, Milford, MA, USA) with UV detection (Photodiode Array Detector, Waters, MA, USA). The separation was carried out on a Luna Omega Polar C18 (1.6 μm, 2.1 × 50 mm^2) column (Phenomenex) at 30 °C. Injection volume was 4 µL. Gradient mode was used for all the compounds with an acetonitrile/15 mM phosphate buffer (pH 2) mobile phase. Gradient duration was 3−5 min depending on the sample (levofloxacin, terazosin, and papaverine).
(§6) All internal standards, namely levofloxacin D8, terazosin D8, and papaverine D3, were purchased from Toronto Research Chemicals (Toronto, ON, Canada). […] Injection volumes were 0.2 μL for terazosin, 0.3 µL for levofloxacin, and 0.15 µl for papaverine with a flow through needle injection system. The mobile phase consisted of 0.1% formic acid (Merck, Darmstadt, Germany) in ultrapure water (A) and 100% LC–MS grade acetonitrile (Honeywell, Seelze, Germany) (B). […] The gradient for levofloxacin was the same as for papaverine, but the total run time was 6 min. The flow rate was 0.3 mL/min for all the compounds.
(§7) Mass spectrometric measurements were carried out using a Waters Xevo TQ-S triple quadruple mass spectrometer coupled with an electrospray ionization (ESI) on a positive mode for all three compounds. Optimized MS-parameters were as follows: capillary 1.5 kV (terazosin and papaverine), 3.5 kV (levofloxacin), cone voltage 80 V (terazosin) and 8 V (terazosin D8), 22 V (papaverine and papaverine D3), 28 V (levofloxacin and levofloxacin D8), source temperature 150 °C, and desolvation temperature 500 °C (terazosin) or 450 °C (papaverine and levofloxacin). Nitrogen (AGA, Helsinki, Finland) was used as the desolvation gas (1000 L·h^−1 terazosin, 800 L·h^−1 papaverine and levofloxacin) and the cone gas (150 L·h^−1), argon (AGA, Helsinki, Finland) as the collision gas. Multiple reaction monitoring (MRM) mode was employed for quantification. […] The resulting data were analyzed with Waters MassLynx V4.1 software. To consider the effect of melanin on the analyses, separate samples containing only melanin in PBS (with no test compound) were also studied.
(§8) The binding parameters were determined with Sips isotherm (Equation (2)) as described by Manzanares et al.. B = (Bmax × [L]^n)/(Kd^n + [L]^n)(2) where B is the amount of bound drug (nmol·mg^−^1); Bmax is the maximum binding capacity (nmol·mg^−^1); [L] is the free drug concentration (µM); n is the heterogeneity index (assuming heterogeneity of the surface of the melanin particles); and Kd represents the dissociation constant (µM).

melanin [6] = assay: in vitro; conditions: for fraction unbound at 20 h, 1 µM: pig, pH 7.4
Procedure: as §4, §5, §6, §7, §8

[7] = human RPE-choroid (predicted), 34.8 mg/mL melanin
[8] = 0.5 mg/mL (12.5 µM) melanin nanoparticles, PBS pH 7.4, room temperature, 68% confidence, initial fluorescence mode for compounds marked *, otherwise MST mode, read-out: Kd ± Kd Confidence (MST)
[9] = Table S2, normalized fluorescence, 60% excitation power, read-out: Kd, MST mode (Fnorm)
[10] = Table S2, raw fluorescence counts before heating, 60% excitation power, read-out: Kd, initial fluorescence mode (converted)

Row | Compound | Melanin binding class based on traditional assay [1] | fraction unbound at 1 µM (melanin [2]; [7]) | Kd [3, 8] [µM] | Kd [3, 9] [µM] | n ± SE, traditional method (Sips isotherm) [4] | Bmax ± SE, traditional method (Sips isotherm) [4] [nmol/mg] | Target Capacity ± SE, traditional method (Sips isotherm) [5] [µM] | fraction unbound at 20 h, 1 µM (melanin [6]) | Kd [3, 10] [µM] | fraction unbound (melanin [6]) | also measured
1 | CCN(CC)CCCC(C)Nc1ccnc2cc(Cl)ccc12 (stereo not drawn) [Chloroquine] | extreme | 1.2e-05 | 0.8 | 0.8 | 0.605 ± 0.012 | 380 ± 40 | 190 ± 20 | 0.0041 | – | – | Kd [4]: 76 ± 23 µM
2 | O=C(O)Cc1ccccc1Nc1c(Cl)cccc1Cl [Diclofenac] | – | – | – | – | – | – | – | – | – | – | Kd ± Kd Confidence (MST) ([3]; 0.5 mg/mL (12.5 µM) melanin nanoparticles, PBS pH 7.4, room temperature, 68% confidence, initial fluorescence mode for compounds marked *, otherwise MST mode): Kd could not be determined; Melanin binding class based on Kd from MST ([3]; class by Kd (MST)): low; melanin binder category in Figure 1a [3]: Weak melanin binders; Kd ± SE, traditional method (Sips isotherm) [4]: no binding ^1
3 | CN(Cc1cnc2nc(N)nc(N)c2n1)c1ccc(C(=O)N[C@@H](CCC(=O)O)C(=O)O)cc1 [Methotrexate] | low | – | 3500 | > 10000 | – | – | – | – | 3500 | 0.98 | fraction unbound (melanin [2]; [7]): 0.54; melanin binder category in Figure 1a [3]: Weak melanin binders; Kd ± SE, traditional method (Sips isotherm) [4]: no binding ^1
4 | CC(C)(C)NCC(O)COc1cccc2c1CC(O)C(O)C2 (stereo not drawn) [Nadolol] | intermediate | 0.08 | 200 ± 33 | 260 | 0.94 ± 0.05 | 68 ± 24 | 34 ± 12 | – | 200 | – | Kd [4]: 340 ± 200 µM; Fraction Unbound in Vitro (%) (1 mg/mL Melanin) ([5]; pig, 20 h, 1 µM, pH 7.4): 78%
5 | COc1ccc(Cc2nccc3cc(OC)c(OC)cc23)cc1OC [Papaverine] | high | – | 28 ± 23 | 93 | – | – | 33 ± 4 | 0.15 | 28 | – | fraction unbound at 1 µM (melanin [2]): 0.0013; n ± SE, traditional method (Sips isotherm) ([5]; 20 h): 0.715 ± 0.015; Bmax ± SE, traditional method (Sips isotherm) ([5]; 20 h): 66 ± 8 nmol/mg; Kd ([5]; 20 h): 66 ± 18 µM
6 | CC1(C)S[C@@H]2[C@H](NC(=O)Cc3ccccc3)C(=O)N2[C@H]1C(=O)O [Penicillin G] | – | – | – | – | – | – | – | – | – | 0.092 | fraction unbound (melanin [2]; [7]): 0.0029
7 | CC(C)NCC(O)COc1cccc2ccccc12 (stereo not drawn) [Propranolol] | high | 0.009 | – | – | 0.89 ± 0.05 | 176 ± 60 | 88 ± 30 | 0.32 | – | – | –
8 | C=C[C@H]1C[N@@]2CC[C@H]1C[C@@H]2[C@@H](O)c1ccnc2ccc(OC)cc12 [Quinidine] | – | – | – | – | – | – | – | – | – | 0.16 | –
9 | COc1cc2nc(N3CCN(C(=O)C4CCCO4)CC3)nc(N)c2cc1OC (stereo not drawn) [Terazosin] | extreme | 0.00012 | 29 ± 28 | 96 | – | – | 56 ± 6.5 | 0.029 | 29 | – | n ± SE, traditional method (Sips isotherm) ([5]; 20 h): 0.64 ± 0.018; Bmax ± SE, traditional method (Sips isotherm) ([5]; 20 h): 112 ± 13 nmol/mg; Kd ([5]; 20 h): 46 ± 16 µM
